Measurements reported in patent publication US7888357B2, “Anti-inflammatory and protein kinase inhibitor compositions and related methods for downregulation of detrimental cellular responses and inhibition of cell death” (Northwestern University, priority 2001, dated 2011).

Assays:
[1] = target: T1, myosin light chain kinase (MLCK) (Gallus gallus, UniProt P11799); assay: Reconstituted enzyme assay, MLCK; type: biochemical, chicken; conditions: γ-[32P]-ATP, synthetic peptide substrate; mean ± SEM; read-out: IC50 MLCK
T1 construct: chicken gizzard MLCK prepared as described; from tissue; host or cells: chicken gizzard
Protocol: [table] […] The rationale for using BV-2 cells in high throughput screening was the paucity of well-characterized human microglial cell lines, and the relevant activation responses and signaling pathways reflect those seen in human and rodent primary microglial cultures. Compounds were tested for their effects on NO accumulation in conditioned media of LPS-stimulated BV-2 cells by measurement of nitrite production by the Griess assay as a read-out for iNOS activity, as described previously. Stock solutions of compounds were prepared in dimethylsulfoxide (DMSO) or in water. When stock solutions were prepared in DMSO, control wells contained the same final concentration of DMSO as the compound-containing wells. […] Solutions of compounds for cell treatments were diluted to a 10× final concentration by dilution of stock solutions in αMEM media. […] Reconstituted enzyme assays were done as described s. The sources of protein kinases were: bovine heart PKA from Promega, rat brain PKC from Calbiochem, rat CaMKII from New England Biolabs, chicken gizzard MLCK prepared as described, and a p38 MAP kinase kit containing recombinant Xenopus p38-MAPK and its human substrate from Upstate Biotechnology. The catalytic domains of these protein kinases retain a high level of amino acid sequence identity across mammalian species, consistent with the lack of documented major differences across species for the in vitro catalytic activity of a given kinase.

[2] = tested on: BV-2 microglial cells; assay: Cell-based screen for inhibition of LPS-stimulated NO release (Griess assay); design: species or system murine; conditions: LPS-stimulated BV-2 cells, 24 hr, nitrite in conditioned media
Protocol: FIG. 1. Cell-based screen for inhibition of LPS-stimulated NO release. […] Inhibition is expressed as percent control, where the control is the NO accumulation from cells stimulated with LPS alone.
The rationale for using BV-2 cells in high throughput screening was the paucity of well-characterized human microglial cell lines, and the relevant activation responses and signaling pathways reflect those seen in human and rodent primary microglial cultures. Compounds were tested for their effects on NO accumulation in conditioned media of LPS-stimulated BV-2 cells by measurement of nitrite production by the Griess assay as a read-out for iNOS activity, as described previously. Stock solutions of compounds were prepared in dimethylsulfoxide (DMSO) or in water. When stock solutions were prepared in DMSO, control wells contained the same final concentration of DMSO as the compound-containing wells. […] Solutions of compounds for cell treatments were diluted to a 10× final concentration by dilution of stock solutions in αMEM media. The commercially available drugs tested were: compound 5 (KN93 from Alexis); compound 6 (pyrrolidinedithiocarbamate or PDTC from Sigma), compound 7 (SB203580 from Alexis Corporation), compound 8 (PD98059 from Alexis Corporation), and compound 9 (UO126 from Cell Signaling). […] Respectively, Western blots of cell lysates were done with the following antibodies: monoclonal anti-iNOS (1:1000 dilution, Transduction Labs); polyclonal anti-rat IL-1β (1:1000 dilution, R&D Systems, Inc.); monoclonal anti-glial fibrillary acidic protein (GFAP) (1:[…] dilution, Sigma); polyclonal anti-rat alioE (1:15,000 dilution) prepared as described; polyclonal anti-COX-2 (1:500 dilution) and monoclonal anti-phosphoATF2 (1:1000 dilution) from Santa Cruz Biotechnology, polyclonal anti-phosphoCREB (1:1000 dilution), and polyclonal anti-phosphop38 MAPK (1:1000 dilution). Reconstituted enzyme assays were done as described s. The sources of protein kinases were: bovine heart PKA from Promega, rat brain PKC from Calbiochem, rat CaMKII from New England Biolabs, chicken gizzard MLCK prepared as described, and a p38 MAP kinase kit containing recombinant Xenopus p38-MAPK and its human substrate from Upstate Biotechnology. The catalytic domains of these protein kinases retain a high level of amino acid sequence identity across mammalian species, consistent with the lack of documented major differences across species for the in vitro catalytic activity of a given kinase.
FIG. 4. Cell-based screen for functional effects of synthetic compounds on LPS-stimulated NO release from BV-2 cells. BV-2 cells were incubated for 24 hr with LPS (500 ng/ml) in the presence of increasing concentrations of: A) MW01-070C; B) MW01-026Z; C) MW01-118Z; D) MW01-119Z; E) MW01-051Z; F) MW01-160Z; G) MW01-196A; H) MW01-024Z; I) SB203580; J) PDTC; K) U0126; L) PD98059. The nitrite levels in conditioned media were determined. Inhibition is expressed as percentage of control values, where the control is the nitrite level in cells stimulated with LPS alone.
Compounds were tested for their effects on NO production by LPS-stimulated BV-2 cells as previously described [Mirzoeva, S., Koppal, T., Petrova, T. V., Lukas, T. J., Watterson, D. M., and Van Eldik, L. J. (1999) Brain Res. 844, 126-134]. The levels of nitrite, a stable NO metabolite, in conditioned media were determined by the Griess assay as previously described [Hu, J., Castets, F., Guevara, J. L., and Van Eldik, L. J. (1996) J. Biol. Chem. 271, 2543-2547]. Stock solutions of compounds were prepared in DMSO or in water. When stock solutions were prepared in DMSO, control wells contained the same final concentration of DMSO as the compound-containing wells. Solutions of compounds for cell treatments were diluted to a 10× final concentration by dilution of stock solutions of drugs in αMEM media.

[3] = tested on: rats; assay: Organ histology after high dose injections; type: in vivo, rat; conditions: after high dose injections into rats (data not shown)

T1 sequence (P11799 935-1906): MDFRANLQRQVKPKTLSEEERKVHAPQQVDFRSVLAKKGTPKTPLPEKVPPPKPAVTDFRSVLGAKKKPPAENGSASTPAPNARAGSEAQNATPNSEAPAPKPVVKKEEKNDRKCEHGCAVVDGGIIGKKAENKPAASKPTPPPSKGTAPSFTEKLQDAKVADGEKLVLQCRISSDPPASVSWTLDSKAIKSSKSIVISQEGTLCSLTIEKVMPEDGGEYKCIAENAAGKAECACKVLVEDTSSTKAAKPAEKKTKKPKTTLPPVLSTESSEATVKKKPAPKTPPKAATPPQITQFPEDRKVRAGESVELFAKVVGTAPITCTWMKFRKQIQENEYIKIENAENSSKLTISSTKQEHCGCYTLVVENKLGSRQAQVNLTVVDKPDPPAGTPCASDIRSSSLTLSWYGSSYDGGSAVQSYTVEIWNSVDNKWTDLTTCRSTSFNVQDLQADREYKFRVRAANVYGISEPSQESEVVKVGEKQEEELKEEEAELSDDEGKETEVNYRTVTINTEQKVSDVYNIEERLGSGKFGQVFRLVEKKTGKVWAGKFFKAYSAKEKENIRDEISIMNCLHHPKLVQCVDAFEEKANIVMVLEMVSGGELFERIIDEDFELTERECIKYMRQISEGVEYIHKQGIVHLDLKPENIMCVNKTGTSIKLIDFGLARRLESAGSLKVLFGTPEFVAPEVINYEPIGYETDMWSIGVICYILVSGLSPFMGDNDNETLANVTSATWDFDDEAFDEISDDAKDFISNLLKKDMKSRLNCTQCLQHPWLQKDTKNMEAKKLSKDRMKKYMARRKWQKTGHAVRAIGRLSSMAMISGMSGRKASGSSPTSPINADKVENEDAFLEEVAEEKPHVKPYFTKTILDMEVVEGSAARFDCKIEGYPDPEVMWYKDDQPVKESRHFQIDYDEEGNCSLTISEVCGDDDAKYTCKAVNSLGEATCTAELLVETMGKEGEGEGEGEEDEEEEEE

IC50 [1]: > 100 µM
Compound: N=c1cc2c(nn1CCCCCCCCCCC(=O)N1CCN(c3ncccn3)CC1)-c1ccccc1CC2 [MW01-070C]
inhibition of NO accumulation by activated glia [2]: more effective
inhibition of NO accumulation by activated glia ([2]; listed as 1): most active compound
liver, kidney or brain damage based on histology [3]: no major liver, kidney or brain damage
